The source of these data is US20250049815A1, “25-HYDROXYCHOLESTEROL (25HC), CRYAB AGGREGATION INHIBITOR TO AMELIORIATE VASCULAR STIFFNESS” (Buck Institute for Research on Aging, priority 2021, published 2025).

Entries after “also recorded” stand apart in the source; their conditions may differ.

Assay [1] has as its system aged female C57BL/6J p16-3MR mice. Nature of the assay: Pulsed wave velocity (PWV) of the aorta by doppler imaging in aged mice. The assay is classed as in vivo, mouse. To be noted: 27 months at baseline, 25HC 50 mpk IP or GCV, 1 and 2 months post treatment, vs untreated controls. As to the method: At baseline, animals were evaluated for blood flow in the aorta using doppler imaging. This determines a measure of vascular stiffness with vessels being more stiff having faster flow.

The next assay concerns senescent cells. Description: Evaluation of senolytic effects in cell culture. Format: cell-based. An excerpt:
Genetic knockdown of this gene kills senescent cells.
There are some commercially available analogs of 25HC such as oxysterols (Griffiths et al. (2019) Biochem Soc Trans., 47: 517-526).

Assay [2] deals with senescent human fetal lung fibroblast (IMR-90). Nature of the assay: Cell viability assay (Cell Counting Kit-8) on NS and SEN IMR-90 cells. Format: cell-based. To be noted: treatment started immediately after removing DMSO/250 nM Doxo, 72 hrs. As to the method: Panel A) Timeline for DMSO/250 nM Doxo treatment and early-time point timeline for 24(S)-HC and 27HC treatment on NS and SEN cells. 24(S)HC and 27HC treatment were started immediately after removing DMSO/Doxo. Panel B) and C) Cell viability assay were performed on NS and SEN cells treated with different concentrations of 24(S)HC and 27HC, respectively. 24(S)HC and 27HC treatment were done for 72 hrs. The cell viability was analyzed by Cell Counting Kit-8 according to the manufactures' protocol using Spectra Max 190 (Molecular Devices). The value was normalized to that of DMSO. (Mean +/−SE, n=3, *p<0.05, **p<0.01 and ***p<0.001 by student's t-test).
(In general: Formazan colour is commonly taken as a measure of viable cells.)

For assay [3], the system named is mouse dermal fibroblasts (mDFs). Nature of the assay: qPCR of senescence marker and CRYAB mRNA in Doxo treated mDFs. The assay is classed as cell-based. To be noted: 250 nM Doxo for 24 hours; day 1, 5, 14; normalized to β-actin, vs DMSO. As to the method:
As shown, mDFs undergo senescence upon 250 nM of Doxo treatment for 24 hours (Day 0). Real-time quantitative PCR (qPCR) was performed on RNA samples isolated from DMSO treated NS (Non-Senescent) mDF cells or Doxo treated SEN (Senescent) mDF cells at day 1, 5, and 14 after Doxo treatment. The amount of mRNA was normalized to the level of β-actin (see, e.g., Demaria et al. (2017) Cancer Discovery, 2: 165-176; and references cited therein). Relative levels of p16INK4a mRNA for DMSO and Doxo treated mDFs was measured. The average value of DMSO is expressed as 1. (Mean +/−SE, n=4, **p<0.01, ****p<0.0001 by Dunnett's multiple comparisons test vs DMSO).
Real-time quantitative PCR (qPCR) was performed on RNA samples isolated from DMSO treated NS mDF cells or Doxo treated SEN mDF cells at day 1, 5, and 14 after Doxo treatment. The amount of mRNA was normalized to the level of β-actin (see, e.g., Demaria et al. (2017) Cancer Discovery, 2: 165-176; and references cited therein). Relative levels of CRYAB mRNA for DMSO and Doxo treated mDFs was measured. The average value of DMSO is expressed as 1. (Mean +/−SE, n=4, *p<0.05, ***p<0.001 by Dunnett's multiple comparisons test vs DMSO).
For orientation: Quantitative PCR measures a nucleic acid by following its amplification.

Assay [4] deals with mouse primary fibro adipogenic progenitors (FAPs). Description: qPCR of senescence marker and CRYAB mRNA in Doxo treated FAPs. The assay is classed as cell-based. To be noted: normalized to β-actin, vs DMSO. As to the method:
As shown, FAPs undergo senescence upon 250 nM of Doxo treatment for 24 hours (Day 0). The mRNA was extracted from DMSO treated NS or Doxo treated SEN FAPs at indicated time points and quantified by qPCR. The amount of mRNA was normalized to the level of β-actin. The graphs show the relative levels of p16INK4a mRNA for DMSO and Doxo treated samples. The average value of DMSO is expressed as 1 (Mean +/−SE, n=3, *p<0.05 by Dunnett's multiple comparisons test vs DMSO).
The cells were treated with 250 nM doxorubicin and incubated for 24 hrs (Day 0). The mRNA was extracted from DMSO treated NS or Doxo treated SEN FAPs at the indicated time points and quantified by qPCR. The amount of mRNA was normalized to the level of β-actin mRNA. The average value of DMSO is expressed as 1 (Mean +/−SE, n=3, **p<0.01 and ***p<0.001 by Dunnett's multiple comparisons test vs DMSO).

Another assay has as its system senescent mDFs. Nature of the assay: Cell viability assay on NS and SEN mDFs treated with 25HC. The assay is classed as cell-based, mouse. The settings on record: 72 hrs. As to the method: Panel A) Timeline for DMSO/Doxo treatment and early-time point timeline for 25HC treatment on NS and SEN cells. 25HC treatment was started immediately after removing DMSO/Doxo. Panel B) Cell viability assay was performed on NS and SEN cells treated with different concentrations of 25HC. 25HC treatment was done for 72 hrs. (Mean +/−SD, n=3, *p<0.05, **p<0.01 vs 0 uM by student's t-test).
Panel A) Timeline for DMSO/Doxo treatment and late-time point timeline for 25HC treatment on NS and SEN cells. 25HC treatment was started 7 days after removing DMSO/Doxo. Panel B) Cell viability assay was performed on NS and SEN cells treated with different concentrations of 25HC. 25HC treatment was done for 72 hrs. (Mean +/−SD, n=6, **p<0.01, ***p<0.001, ****p<0.0001, vs 0 uM by student's t-test).

For another assay, the system named is senescent FAPs. Nature of the assay: Cell viability assay on NS and SEN FAPs treated with 25HC. The assay is classed as cell-based, mouse. To be noted: 25HC started immediately after removing DMSO/Doxo (early time point), total 5 days. As to the method:
Panel A) Timeline for DMSO/Doxo treatment and early-time point timeline for 25HC treatment on NS and SEN cells. 25HC treatment was started immediately after removing DMSO/Doxo. Panel B) Cell viability assay was performed on NS and SEN cells treated with different concentrations of 25HC. 25HC treatment was done for total 5 days. The value was normalized to that of 0 uM. The average value of 0 M is expressed as 100% (Mean +/−SE, n=3, **p<0.01 and ***p<0.001 by student's t-test vs NS).

A further assay concerns CRYAB. The settings on record: Makley et al. (2015) Science, 350: 674-7; cited from earlier work.

`Nc1nc(O)c2ncn(COC(CO)CO)c2n1` [GCV, ganciclovir, reference compound]: in assay [1], the “pulsed wave velocity (PWV) of the aorta” value is listed as “reduces PWV”.

On to `C[C@H](CCC(=O)O)[C@H]1CCC2[C@@H]3CC=C4C[C@H](O)CC[C@]4(C)C3CC[C@@]21C` (stereo partly drawn) [(3alpha,9xi,14xi)-3-hydroxychol-5-en-24-oic acid], for which the senolytic effect entry in the assay with senescent cells is on record as “novel senolytics”.

For `CC(C)CCC[C@@H](C)[C@H]1CC[C@H]2[C@@H]3[C@@H](O)C=C4C[C@@H](O)CC[C@]4(C)[C@H]3CC[C@]12C` [7βHC, 7β-Hydroxycholesterol], in the assay on senescent cells, the senolytic effect result is listed as “novel senolytics”.

For `CC(=O)CCC[C@@H](C)[C@H]1CC[C@H]2[C@@H]3CC=C4C[C@@H](O)CC[C@]4(C)[C@H]3CC[C@]12C` [27-Nor-25-ketocholesterol], in the assay with senescent cells, the senolytic effect entry was “novel senolytics”.

Take `CC(C)[C@@H](O)CC[C@@H](C)[C@H]1CC[C@H]2[C@@H]3CC=C4C[C@@H](O)CC[C@]4(C)[C@H]3CC[C@]12C` [24(S)HC, 24(S)-Hydroxycholesterol]: the senolytic effect result in the assay on senescent cells is reported as “novel senolytics”. Further, the “cell viability of senescent vs non-senescent IMR-90 cells” value in assay [2] is given as “specifically kill senescent human fetal lung fibroblast; also recorded: specifically kill senescent IMR-90 cells”.

In the case of `C=C1CC[C@@H](O)CC1=C/C=C1\CCC[C@]2(C)[C@@H]([C@H](C)CCCC(C)(C)O)CC[C@@H]12` [Calcifediol 25-Hydroxyvitamin D3, reference compound], in the assay on senescent cells, the senolytic effect result is “novel senolytics”.

Consider `CC(C)CCC[C@@H](C)[C@H]1CC[C@H]2[C@@H]3[C@H](O)C=C4C[C@@H](O)CC[C@]4(C)[C@H]3CC[C@]12C` [7αHC, 7α-Hydroxycholesterol], for which the senolytic effect result with senescent cells is “novel senolytics”.

Take `C[C@@H](CO)CCC[C@@H](C)[C@H]1CC[C@H]2[C@@H]3CC=C4C[C@@H](O)CC[C@]4(C)[C@H]3CC[C@]12C` [27HC, 27-Hydroxycholesterol]: in the assay on senescent cells, the senolytic effect result is given as “novel senolytics”. In addition, in assay [2], the “cell viability of senescent vs non-senescent IMR-90 cells” value is given as “specifically kill senescent human fetal lung fibroblast; also recorded: specifically kill senescent IMR-90 cells”.

Turning to `CC(CCCN(C)C)C1CCC2C3CC=C4C[C@@H](O)CC[C@]4(C)C3CC[C@]12C` (stereo partly drawn) [(3S,10R,13R)-17-(5-(dimethylamino)pentan-2-yl)-10,13-dimethyl-2,3,4,7,8,9,10,11,12,13,14,15,16,17-tetradecahydro-1H-cyclopenta[a]phenanthren-3-ol], in the assay with senescent cells, the senolytic effect entry is reported as “novel senolytics”.

With `COc1cccc2c1C(=O)c1c(O)c3c(c(O)c1C2=O)C[C@@](O)(C(=O)CO)C[C@@H]3O[C@H]1C[C@H](N)[C@H](O)[C@H](C)O1` [Doxo, doxorubicin], in assay [3], the “relative level of CRYAB mRNA” value is reported as “upregulated CRYAB” and the “relative level of p16INK4a mRNA” value is recorded as “induces senescence marker, p16INK4a”. Besides, the “senescence induction (relative level of p16INK4a mRNA)” value in assay [4] (250 nM Doxo for 24 hours) is on record as “induced senescence”. Besides, the “expression of CRYAB mRNA” value in assay [4] (250 nM doxorubicin for 24 hrs) was “significantly increased”.

Regarding `C[C@@H](CCCC(C)(O)c1ccccc1)C1CCC2C3CC=C4C[C@H](O)CC[C@@]4(C)C3CC[C@]21C` (relative stereo) [rel-(3R,10S,13S)-17-[(2S)-6-hydroxy-6-phenylheptan-2-yl]-10,13-dimethyl-2,3,4,7,8,9,10,11,12,13,14,15,16,17-tetradecahydro-1H-cyclopenta[a]phenanthren-3-ol], in the assay with senescent cells, the senolytic effect entry was “novel senolytics”.

`C[C@H](CCCC(C)(C)O)[C@H]1CC[C@H]2[C@@H]3CC=C4C[C@@H](O)CC[C@]4(C)[C@H]3CC[C@]12C` [25HC, 25-hydroxycholesterol]: the senolytic effect entry in the assay on senescent cells is on record as “novel senolytic agent”. Besides, in assay [1], the “pulsed wave velocity (PWV) of the aorta” value was “reduces PWV”. The “cell viability of senescent vs non-senescent mDFs, late time point” value in the assay on senescent mDFs (25HC started 7 days after removing DMSO/Doxo) was “specifically kills senescent mDFs”. In addition, in the assay on senescent mDFs (25HC started immediately after removing DMSO/Doxo), the “cell viability of senescent vs non-senescent mDFs, early time point” value is recorded as “specifically kills senescent mDFs”. In the assay with senescent FAPs, the “cell viability of senescent vs non-senescent FAPs” value is “specifically kills senescent FAPs”. The “inhibition of CRYAB” value with CRYAB was “effective inhibitor of CRYAB”.

Turning to `CC(C)CC[C@@H](O)[C@@H](C)[C@H]1CC[C@H]2[C@@H]3CC=C4C[C@@H](O)CC[C@]4(C)[C@H]3CC[C@]12C` [22(R)HC, 22(R)-Hydroxycholesterol], the senolytic effect result with senescent cells is “novel senolytics”.

As to `C[C@H](CCCC(C)(C)O)[C@H]1CC[C@H]2[C@@H]3[C@H](O)C=C4C[C@@H](O)CC[C@]4(C)[C@H]3CC[C@]12C` [7α,25-Dihydroxycholesterol], in the assay with senescent cells, the senolytic effect result was “novel senolytics”.
